Data on 3 compounds can be found in US10220029B2, “Pharmaceutical composition comprising glutarimide derivatives and use thereof in the treatment of eosinophilic diseases” (OBSCHESTVO S ORGANICHENNOI OTVETSTVENNOSTIYU …, priority 2013, dated 2019).

SMILES strings stand for the structures. Marks after values point to notes of the source that are not given here.

Assay [1] has as its system model of allergic rhinitis in guinea pigs. As to the kind of experiment: Clinical manifestations of allergic rhinitis in guinea pigs (sneezes, nose scratchings). The format is in vivo, guinea pig. Particulars: 2 hours after last ovalbumin, n = 8. The protocol: (§1) The model of allergic rhinitis in guinea pigs was realized by a standard method [Vishnu N. Thakare, M. M. Osama, Suresh R. Naik. […] 2013 September; 17(1):18-25].
(§2) Guinea pigs (250-300 g) were immunized with 4-time (on days 0, 7, 14, and 21) intragastric administration of ovalbumin (100 μg/pig) and aluminium hydroxide (5 mg/pig), both of which were diluted and suspended in a physiological saline solution. […], a solution of ovalbumin (60 mg/mL) was administered intranasally to each nostril of the animals at a dose 20 μL. On day 35, the animals received subcutaneously an ovalbumin solution (200 μg/mL, 25 μL); the animal back was previously shaved in the site of administration. Swelling and redness at the injection site served as a support of sensibilisation. On day 42 of the study, an ovalbumin solution (60 mg/mL, 20 μL/nostril) was administered intranasally. A group of pseudoimmunized animals was formed to control the formation of exactly allergic inflammation: on days 0, 7, 14, and 21, the pigs received a solution of aluminium hydroxide (5 mg/pig), and on days 28 and 35, they received a physiological saline solution, and on day 42, a solution of ovalbumin (60 mg/mL, 20 μL/nostril).
(§3) The studied compounds (14 mg/kg) were administered 3 times by the intragastric route: 48, 24, and 1 hour before the last administration of ovalbumin. The reference preparation, dexamethasone, was administered one time by the intragastric route, 3 hours before the last intranasal administration of ovalbumin.
(§4) Clinical manifestations, such as the number of sneezes and nose scratchings, were registered for 2 hours after the last administration of ovalbumin. Nasal lavage was taken 24 hours after the last administration of ovalbumin, and in this lavage, the total lymphocyte count and leukocyte formula were determined. The number of guinea pigs in a group was 8.

Assay [2] deals with model of bronchial asthma in guinea pigs. As to the kind of experiment: Content of cell elements in BAL in the model of bronchial asthma in guinea pigs. It is filed as in vivo, guinea pig. Particulars: Table 4; 14 mg/kg, 10 times of administration; n = 9. The protocol:
Bronchial asthma in guinea pigs was induced by a standard method [Ricciardolo F L, Nijkamp F, De Rose V, Folkerts G. The guinea pig as an animal model for asthma// Current Drug Targets. 2008 June; 9(6):452-65]. The animals were immunized by one parenteral administration of 0.5 mL of a solution comprising 100 μg/mL ovalbumin (Sigma) and 100 mg/mL aluminium hydroxide. Intact animals received a physiological saline solution in an amount of 0.5 mL.
On days 29, 30 and 31, hyperactivity of the respiratory airways was provoked by inhalation administration of ovalbumin in ascending concentrations of 0.1, 0.3, and 0.5 mg/mL on days 1, 2, and 3 of the provocation, respectively. The inhalation lasted 5 minutes or until asphyxia symptoms became apparent (fall to one side). On day 32, the animals received a challenging dose of ovalbumin (1 mg/mL) for 5 minutes, while assessing a bronchospastic reaction.
The studied compounds were administered to the animals once daily every day for 6 or 10 days; the administration was terminated two days before the administration of the challenging dose of antigen.
The bronchoalveolar lavage (BAL) and cardiac cavity blood were derived from the animals 24 hours after administration of the challenging dose. The BAL was collected under anesthesia by lavaging the lungs with 5 mL of a physiological saline solution heated to 37° C. through the trachea, using a syringe dosing device.
The absolute number of cell elements in 1 μL of the lavage (cytosis) was counted in the bronchoalveolar lavage, using the Goryaev camera. Then, the BAL was centrifuged at 200 g for 10 minutes. The residue was used to prepare swabs that were fixed in methanol and stained according to Romanovsky-Giemsa to count endopulmonary cytogram.
The study comprised 3 experiments, wherein the first one was directed to the evaluation of the effect of claimed compounds 1-6 on the cell composition of the BAL, the second and the third experiments were aimed at evaluating the effect of compounds 1 and 2 on the cell composition of the BAL, the cell composition of the blood, and on the bronchospasm severity.

In assay [3] the test system is model of sephadex-induced eosinophilic lung inflammation in rats. As to the kind of experiment: Content of cell elements in BAL in the model of sephadex-induced eosinophilic lung inflammation in rats. It is filed as in vivo, male Wistar rats. Particulars: Table 9, four times, BAL 48 hours after sephadex, n = 7. The protocol: The model of sephadex-induced eosinophilic lung inflammation in rats was realized by a standard method [Evaldsson C, Rydén I, Uppugunduri S. Isomaltitol exacerbates neutrophilia but reduces eosinophilia: new insights into the sephadex model of lung inflammation//Int Arch Allergy Immunol. 2011; 154(4):286-94]. Sephadex G-200 (Pharmacia, Sweden) was administered one time by inhalation to male Wistar rats at a dose of 5 mg/kg. The studied compounds were administered to the animals by the intragastric route four times: 24 hours and 1 hour before and 24 hours and 45 hours after administration of sephadex. The reference preparation, budesonide, was administered according to the same scheme, by inhalation at a dose of 0.5 mg/kg. Bronchoalveolar lavage was taken 48 hours after the inhalation of sephadex, and the total lymphocyte count and leukocyte formula in the lavage were determined. The number of rats in a group was 7 to 10.

The subject of assay [4] is model of allergic rhinitis in guinea pigs. As to the kind of experiment: Content of cell elements in the nasal lavage in the model of allergic rhinitis in guinea pigs. It is filed as in vivo, guinea pig. Particulars: n = 8. The protocol: as §1, §2, §3, §4
Assay [5] concerns model of atopic dermatitis in mice. The assay can be described thus: Response index in DNCB-induced atopic (allopathic) dermatitis in mice. The format is in vivo, male Balb/c mice. Particulars: 10 mg/kg intragastric once daily on days 8-17 (reference preparation); n = 12. The protocol: The model of allopathic dermatitis was realized by a standard method [Mechanism of dinitrochlorobenzene-induced dermatitis in mice: role of specific antibodies in pathogenesis//PLoS One. 2009; 4(11)].
On days 0 and 12 of the study, 100 μL of a 2% solution of 1-chloro-2,4-dinitrobenzene (DNCB, Sigma-Aldrich, US) in 95% ethanol was applied to shaved sites in the backs of male Balb/c mice. On day 17 of the study, to the right “studied” ear of the animals, 20 μL of the alcohol solution of 2% DNCB was applied two times with a one-hour interval. The studied compound and the reference preparation, dexamethasone, were administered by the intragastric route once daily on days 8-17 of the study.
On day 18 of the study, the animals were euthanized in a CO2 camera. The weights of the “studied” and “control” ears were measured. A response index (RI) expressed in percentage of a difference in the weights of the “studied” and “control” ears was calculated.

Assay [6] deals with model of leukotriene-induced eosinophilic lung inflammation in guinea pigs. The assay can be described thus: Content of cell elements in BAL in the model of leukotriene-induced eosinophilic lung inflammation in guinea pigs. It is filed as in vivo, guinea pig. Particulars: 0.8 mg/kg intragastric, one time one hour before LTD4 (reference preparation); BAL 48 hours after LTD4; n = 8. The source says:
The model of leukotriene-induced eosinophilic lung inflammation in guinea pigs was realized by a standard method [Underwood DC1, Osborn R R, Newsholme S J, Torphy T J, Hay D W. Persistent airway eosinophilia after leukotriene (LT) D4 administration in the guinea pig: modulation by the LTD4 receptor antagonist, pranlukast, or an interleukin-5 monoclonal antibody// Am J Respir Crit Care Med. 1996 October; 154(4 Pt 1):850-7]. A solution of leukotriene D4 (LTD4, Cayman Chemical, USA) at a concentration of […] (a flow rate of 250 mL/hr) was inhaled to male guinea pigs (250-300 g) under conditions of a double-chamber plethysmograph (Emka Technologies, France) for one minute. The studied compound was administered to the animals by the intragastric route four times: 24 hours and 1 hour before and 24 hours and 45 hours after the inhalation of LTD4. The reference preparation, montelukast (0.8 mg/kg), was administered one time by the intragastric route one hour before the inhalation of LTD4. Bronchoalveolar lavage was taken 48 hours after the inhalation of LTD4, and the total lymphocyte count and leukocyte formula were determined in the lavage. The number of guinea pigs in a group was 8.

The mark [7] stands for this setting: 14 mg/kg intragastric, 3 times, nasal lavage 24 hours after last ovalbumin.
[8] abbreviates: 5 mg/kg intragastric, one time (reference preparation).
Setting [9] is: 5 mg/kg intragastric, one time 3 hours before last ovalbumin (reference preparation).

Consider `Cn1cnc(CCN2C(=O)CCCC2=O)c1` [Compound 5], for which, in assay [1] (14 mg/kg intragastric, 3 times), the “Number of nose scratchings/2 hours” value is given as 19.1 ± 4.9 & and the “Number of sneezes/2 hours” value is 7.1 ± 1.3 &. For the same compound, in assay [2], the “Eosinophils in BAL” value was 1.61 ± 0.86*& 10^9/L, the “Lymphocytes in BAL” value is 1.35 ± 0.34* 10^9/L, the “Monocytes in BAL” value was 0.84 ± 0.23* 10^9/L and the “Neutrophils in BAL” value was 1.05 ± 0.33 10^9/L. Moreover, in assay [3] (1.8 mg/kg intragastric), the “Eosinophils, content of cell elements in 1 μL of BAL” value (“Eosinophils, content … of BAL” below) is reported as 147 ± 44& in 1 μL of BAL; the “Leukocytes, content of cell elements in 1 μL of BAL” value (shortened to “Leukocytes, content … of BAL”) is given as 2064 ± 257& in 1 μL of BAL; the “Lymphocytes, content of cell elements in 1 μL of BAL” value (“Lymphocytes, content … of BAL” below) is recorded as 66 ± 26 in 1 μL of BAL; the “Macrophages, content of cell elements in 1 μL of BAL” value (shortened to “Macrophages, content … of BAL”) was 1576 ± 93& in 1 μL of BAL. Further, in assay [3] (1.8 mg/kg intragastric), the “Neutrophils, content of cell elements in 1 μL of BAL” value (“Neutrophils, content … of BAL” for short) is listed as 385 ± 57 in 1 μL of BAL. In addition, in assay [3] (18 mg/kg intragastric), the “Eosinophils, content … of BAL” value is given as 34 ± 15& in 1 μL of BAL; the “Leukocytes, content … of BAL” value is 2189 ± 222& in 1 μL of BAL; the “Lymphocytes, content … of BAL” value is 121 ± 48 in 1 μL of BAL; the “Macrophages, content … of BAL” value is on record as 1331 ± 66 & in 1 μL of BAL. Besides, the “Neutrophils, content … of BAL” value in assay [3] (18 mg/kg intragastric) is given as 605 ± 124 in 1 μL of BAL. Further, in assay [4] (setting [7]), the “Eosinophils, content of cell elements in 1 μL of nasal lavage” value is reported as 575 ± 143& in 1 μL of nasal lavage; the “Leukocytes, content of cell elements in 1 μL of nasal lavage” value is recorded as 1071 ± 233& in 1 μL of nasal lavage; the “Lymphocytes, content of cell elements in 1 μL of nasal lavage” value is given as 9 ± 7 in 1 μL of nasal lavage; the “Macrophages, content of cell elements in 1 μL of nasal lavage” value was 198 ± 54 in 1 μL of nasal lavage. In assay [4] (setting [7]), the “Neutrophils, content of cell elements in 1 μL of nasal lavage” value is 344 ± 50& in 1 μL of nasal lavage.

Regarding `C[C@@H]1C[C@H]2[C@@H]3CCC4=CC(=O)C=C[C@]4(C)[C@@]3(F)[C@@H](O)C[C@]2(C)[C@@]1(O)C(=O)CO` [Dexamethasone, dexamethasone, reference compound], in assay [1] (setting [8]), the “Number of nose scratchings/2 hours” value was 16.7 ± 1.8*& and the “Number of sneezes/2 hours” value is listed as 7.9 ± 0.8 &. Further, the “Response index (%)” value in assay [5] is listed as 65.6 ± 8*& %. For the same compound, in assay [4] (setting [9]), the “Eosinophils, content of cell elements in 1 μL of nasal lavage” value is 365 ± 90& in 1 μL of nasal lavage; the “Leukocytes, content of cell elements in 1 μL of nasal lavage” value is 1186 ± 142& in 1 μL of nasal lavage; the “Lymphocytes, content of cell elements in 1 μL of nasal lavage” value was 5 ± 3 in 1 μL of nasal lavage; the “Macrophages, content of cell elements in 1 μL of nasal lavage” value is listed as 296 ± 71 in 1 μL of nasal lavage. The “Neutrophils, content of cell elements in 1 μL of nasal lavage” value in assay [4] (setting [9]) was 328 ± 47& in 1 μL of nasal lavage.

Take `CC(C)(O)c1ccccc1CC[C@@H](SCC1(CC(=O)O)CC1)c1cccc(/C=C/c2ccc3ccc(Cl)cc3n2)c1` [Montelukast, montelukast, reference compound]: in assay [6], the “Eosinophils, content … of BAL” value is on record as 618 ± 116*& in 1 μL of BAL; the “Leukocytes, content … of BAL” value is 24065 ± 415*& in 1 μL of BAL; the “Lymphocytes, content … of BAL” value was 96 ± 39 in 1 μL of BAL; the “Macrophages, content … of BAL” value is listed as 1519 ± 263 in 1 μL of BAL. Moreover, the “Neutrophils, content … of BAL” value in assay [6] is listed as 173 ± 41 in 1 μL of BAL.
